In patent EP4512403A1, “NEUROPEPTIDE B AND W-RECEPTOR AS A TARGET FOR TREATING MOOD DISORDERS AND/OR CHRONIC STRESS” (Friedrich-Schiller-Universität Jena, priority 2023, dated 2025):
Entries after “also recorded” stand apart in the source; their conditions may differ.

Columns and labels:
Npbwr1 = Npbwr1 expression in NAc after caffeine (RNA-sequencing, qPCR); format: in vivo, mice
Source text: (§1) RNA purification and quantification. […] RNA was washed in isopropanol and 75% Ethanol. […] Primer sequences are listed in the supplementary material. Quantitative PCR results were processed as described ^22.
(§2) Next-generation RNA-sequencing. An in-house RNA-sequencing analysis pipeline was applied as described ^25. After artificial depletion of ribosomal RNA (rRNA) transcripts from the data set, more than 90% of reads aligned to the reference genome GRCm38, indicating excellent sample quality. Only changes that reached an adjusted P-value < 0.05 and a log2FC 0.5 <> - 0.5 were further considered.
(§3) To determine caffeine-regulate transcripts, next-generation RNA-sequencing 2h after caffeine-injection on NAc of wildtype (WT) and T75A mice were performed. Tissue was collected at four time points along the diurnal clock ^14. As expected, significant changes in circadian markers were observed, which oscillated in the expected manner across the four measured time points (Per1, Per2, Cry1, Bmal), both in WT and T75A-DARPP-32 mutant mice (Figure 3). […] Altered transcripts belonged to a variety of cellular signaling pathways, including synaptic transmission, transcriptional regulation and hormonal signaling (Figure 4C).

[1] = system: NAc of wildtype (WT) and DARPP-32-T75A mutant mice; test: RNA-sequencing of NAc 2h after caffeine injection; format: in vivo; conditions: active and inactive phases
Protocol: as §2, §3

NAc dendritic spines = test: NAc dendritic spine analysis after CVS and caffeine; format: in vivo, mice
Source text: (§4) AAVs, stereotaxic surgery and microinjection.
Dendritic spine analysis. The analysis was based on detecting the AAVs' GFP-fluorophores. Photos of 40 µm PFA-fixed brain sections were taken with a Zeiss LSM 880 confocal microscope using the AiryScan method. Maximum intensity projections were obtained using Zen Black and Zen Blue software and analysed in NeuronStudio (CNIC, Mount Sinai School of Medicine). The total density of spines, proportions of thin, mushroom and stubby spines as well as the cumulative neck-length were determined in Graph Prism. Neck-containing mushroom density refer to the sum of thin and mushroom spine densities.

mice [2] = test: Escape behavior tests in naive WT and T75A mice 24h after caffeine; format: in vivo; conditions: naïve WT mice; 7.5 mg/kg caffeine in the dark phase; tested 24h later
Protocol: (§5) Behavioral tests and CVS. The acute behavioral tests forced swim test, tail suspension test, sucrose preference, splash test and novelty suppressed feeding were performed as described ^13,23. After CVS, no tail suspension test was conducted, as tail suspension is part of the stress-induction protocol. For CVS-groups, caffeine was injected at the last day of CVS (day 21), just prior to the stressor. The CVS-protocol was performed as described ^13. […] Stressors consist of one hour of either, tube restraint, tail suspension or 100 mild electric random […]. If only female experimenters were present, a used male t-shirt was wrapped in clean protective clothing from the animal unit and placed into the experimental room in order to avoid variability due to sex-specific scents of the scientists ^24. All experiments were conducted in the light phase of the light-cycle to allow comparability with previous experiments ^22.

mice [3] = conditions: both sexes; reference 14; cited from earlier work
circadian genes = test: Read-counts of circadian genes (Per1, Per2, Cry, Bmal) after caffeine; format: in vivo, mice; conditions: normalized read-counts for Per1, Per2, Cry, 2h after caffeine
Protocol: as §2, §3

mice [4] = test: Behavioral tests after chronic variable stress (CVS), 24h after caffeine; format: in vivo; conditions: female mice after CVS, 7.5 mg/kg caffeine i.p., tested 24h later
Protocol: as §5

Casp3 = test: qPCR of apoptosis marker Casp3 after microinfusion into the NAc; format: in vivo, mice; conditions: 1nmolar NPB or 1 µmolar CYM50769 into NAc, tissue 24 h later
Source text: as §1, §4

Per2 = test: qPCR of circadian gene Per2 after microinfusion into the NAc; format: in vivo, mice; conditions: 1nmolar NPB or 1 µmolar CYM50769 into NAc, tissue 24 h later
Source text: as §1, §4

mice [5] = test: Sucrose preference after CVS and ligand microinfusion; format: in vivo; conditions: tested app. 24 h after microinfusion
Protocol: as §4, §5

Bdnf = Bdnf qPCR after microinfusion of Npbwr1 ligands into the NAc; format: in vivo, mice
Source text: as §1, §4

mice [6] = conditions: acute microinfusion into NAc
Protocol: Drugs and chemicals. Mice were intraperitoneally (i.p.) injected with 7.5 mg/kg caffeine (#, C0750, Sigma) or saline at an injection volume of 10ml/kg body weight and tested 2 or 24 h later.
In order to address the rapid acting aspects of the Npbwrl-pathway, ligands were microinjected into the NAc that activate (NPB) or inhibit (CYM50769) Npbwr1. While NPB is a natural neurotransmitter, CYM50769 is a synthetic ligand, which has not been tested in vivo. […] Doses of 0.1 µM, 1 µM and 10 µM CYM50769 were injected and mice were scored for health markers for 7 days.

mice [7] = test: Splash test after CVS and ligand microinfusion; format: in vivo; conditions: tested app. 24 h after microinfusion
Protocol: as §5, with “Drugs” for “Behavioral tests”, “chemicals. […]” for “CVS. The acute behavioral tests forced swim test, tail suspension test, sucrose preference, splash test and novelty suppressed feeding were performed as described ^13,23.”, “For CVS-groups, caffeine was injected at the last day of CVS (day 21), just prior to the stressor.” left out

Bcl2 = test: qPCR of apoptosis marker Bcl2 after microinfusion into the NAc; format: in vivo, mice; conditions: 1nmolar NPB or 1 µmolar CYM50769 into NAc, tissue 24 h later
Source text: as §1, §4

mice [8] = test: Tests for depressive-like behavior (forced swim, splash, sucrose preference) 24 h after ligand microinjection; format: in vivo; conditions: 24 h later; for behavioral effects of CVS: CVS mice, 1 nM NPB or 1 µM CYM50769 into NAc after last stress session; for depressive-like behaviors: naïve mice, 1 nM NPB or 1 µM CYM50769 into NAc
Protocol: as §4, §5
Next, the rapid effects of Npbwr1 activity were tested on depressive-like behaviors in vivo. To that end, mice underwent CVS and were microinjected with 1 nM NPB and 1 µm CYM50769 after the last session of stress induction. Behavioral tests were conducted 24 h later. […] In contrast, CYM50769 had no effects in naïve mice.

mice [9] = test: Forced swim test after CVS and ligand microinfusion; format: in vivo; conditions: microinfused after last stress induction, tested app. 24 h later
Protocol: as §5, with “Drugs” for “Behavioral tests”, “chemicals. […]” for “CVS. The acute behavioral tests forced swim test, tail suspension test, sucrose preference, splash test and novelty suppressed feeding were performed as described ^13,23.”, “For CVS-groups, caffeine was injected at the last day of CVS (day 21), just prior to the stressor.” left out

mouse brain = conditions: intracerebroventricular injection; reference 15; cited from earlier work
mice [10] = test: Forced swim test after CVS and ligand microinfusion; format: in vivo; conditions: naive mice; 1 nM NPB or 1 µM CYM50769 into NAc; tested app. 24 h later
Protocol: as §4, §5

mice [11] = test: Splash test after CVS and ligand microinfusion; format: in vivo; conditions: naive mice; tested app. 24 h after microinfusion
Protocol: as §4, §5

[12] = 1nmolar NPB or 1 µmolar CYM50769 microinfused into NAc, tissue collected 24 h later

Q: Which Npbwr1 levels (Npbwr1; 24h after caffeine injection, dark phase) does the source give for `Cn1c(=O)c2c(ncn2C)n(C)c1=O` [caffeine] here?
A: Its Npbwr1 levels is “decreased; also recorded: reduced”.

Q: And the Npbwr1 expression (Npbwr1; WT mice, 2h after caffeine injection, end of the dark phase)?
A: The Npbwr1 expression was “increased”.

Q: And the caffeine-induced transcriptional changes [1]?
A: The caffeine-induced transcriptional changes was “biggest effect of caffeine occurs in WT in the active phase; also recorded: occurred in WT in the active (dark) phase”.

Q: What about the “CVS-induced changes in NAc dendritic spines” value (NAc dendritic spines; females, 24h after caffeine injection) of the same compound?
A: The value was “reversed by caffeine back to naive levels”.

Q: And the Cumulative head diameter (NAc dendritic spines; females, CVS, 24h after caffeine)?
A: The Cumulative head diameter was “reversed”.

Q: What about the CVS-induced spine changes (NAc dendritic spines; males, CVS, caffeine) of the same compound?
A: The CVS-induced spine changes was “partially reversed”.

Q: What about the Cumulative head diameter (NAc dendritic spines; males, CVS, caffeine) of the same compound?
A: The Cumulative head diameter was “reversed”.

Q: And the Escape behaviors (mice [2])?
A: Its Escape behaviors is “altered”.

Q: What about the mood-elevating effects (mice [3]) of the same compound?
A: Its mood-elevating effects is “only occurred in the active (dark) phase”.

Q: And the “amplitude of circadian oscillations” value (circadian genes)?
A: Its value is “may slightly flatten the amplitude”.

Q: And the stress-induced behavioral changes (mice [4])?
A: The stress-induced behavioral changes was “reversed; also recorded: improved stress-induced behavioral changes”.

Q: Which results are given for `COc1ccc(Oc2c(Cl)cnn(C3c4ccccc4-c4ccccc43)c2=O)cc1` [CYM50769]?
A: Casp3 (apoptosis marker) (Casp3): does not alter; also recorded: Neither NPB nor CYM50769 affected; Per2 (circadian gene) (Per2): not affected; also recorded: did not alter; Sucrose preference, CVS-effects (mice [5]): rescues CVS-effects; Bdnf (Bdnf; [12]): increases Bdnf; also recorded: altered Bdnf-levels; Bdnf (Bdnf; 1 µmolar CYM50769 microinfused into NAc, single dose, tissue collected 7 days later): persists at the 7 day time point; Bdnf (Bdnf; 1 µmolar CYM50769 microinfused into NAc, single dose, tissue collected 7 days later, listed as CYM5069): altered Bdnf levels starting at 24h for up to 7 days; selectivity and tolerability of an acute dose (mice [6]): selective and well tolerated; Splash test, CVS-effects (mice [7]): blocks CVS-effects; Bcl2 (apoptosis marker) (Bcl2): No effect; also recorded: Neither NPB nor CYM50769 affected; behavioral effects of CVS (mice [8]): rescued CVS-effects; also recorded: blocked those; behavioral effects of CVS (mice [8]; listed as CYM5069): reversed effects of chronic stress on behavior; depressive-like behaviors (mice [8]): no effects; Forced swim test, CVS-effects (mice [9]): blocks CVS-effects

Q: Which feeding (mouse brain) does the source give for “NPB: natural agonist of Npbwr1, a natural neurotransmitter; short biologically active peptide (#CSB-MP015971HU-100, Cusabio)” here?
A: The feeding was “induced hyperphagia after 2 h, followed by hypophagia”.

Q: What about the “Per2 (circadian gene)” value (Per2) of the same compound?
A: Its value is “not affected; also recorded: did not alter”.

Q: What about the “Sucrose preference, ratio of sucrose solution consumed” value (mice [5]; naive mice) of the same compound?
A: Its value is “reduce the ratio of sucrose solution consumed”.

Q: And the Bdnf (Bdnf; [12])?
A: The Bdnf was “decreases Bdnf; also recorded: altered Bdnf-levels; also recorded: opposing effect on Bdnf”.

Q: What about the “Forced swim test, immobility time” value (mice [10]) of the same compound?
A: The value was “increases immobility time”.

Q: What about the “Splash test, grooming” value (mice [11]) of the same compound?
A: Its value is “may reduce grooming”.

Q: And the “behavioral effects of CVS” value (mice [8])?
A: The value was “not enhancing the behavioral effects of CVS further”.

Q: And the depressive-like behaviors (mice [8])?
A: The depressive-like behaviors was “elicited depressive-like behaviors; also recorded: increased depressive-like behaviors; also recorded: mimicked chronic stress effects”.
